Measured values taken from US20100022527A1, “BIPHENYL SUBSTITUTED SPIROTETRONIC ACIDS AND THEIR USE FOR THE TREATMENT OF RETROVIRAL DISEASES” (priority 2006, published 2010).
pIC50: −log10 of the molar value.

target: T1, HIV-1 protease wild type protein (Human immunodeficiency virus type 1 group M subtype B, UniProt P04585); assay: Biochemical protease assay
T1 construct: HIV-1 protease wild type protein; purchased AscoProt Biotech, Prague, Czech Republic
Experimental: For the determination of their in vitro activity on HIV proteases the test substances are dissolved in DMSO and serially diluted. In each case 0.5 μl of substance dilution, 20 μl of 0.2-1 nM HIV-1 protease wild type or mutant protein (e.g., multiresistant isolate “35513”: L10I, I15V, L19I, K20R, E35D, M36I, R41K, I54V, L63P, H69K, A71V, T74P, I84V, L89M, L90M, 193L, AscoProt Biotech, Prague, Czech Republic) in buffer 1 (50 mM sodium acetate pH 4.9, 0.02% BSA, 0.1 mM EDTA, 0.5 mM DTT) and 20 μl of 8 μM substrate (M1865 from Bachem, Bubendorf, Switzerland; Matayoshi et al., Science 1990, 247, 954-8) in buffer 1 are added successively to a 384 well microtiter plate (Greiner, Frickenhausen, Germany), incubated for 60-180 minutes at 32° C. and the fluorescence is measured (e.g., Tecan Safire, 340 nm extinction, 520 nm emission). IC50 values are determined by graphical plotting the substance concentration against the percentage inhibition.

SMILES | pIC50
Cc1cc(-c2ccc([N+](=O)[O-])cc2)c(Cl)cc1C1=C(O)C2(CCC3CCCC3C2)OC1=O (centres unmarked) [Example 89] | ≥ 7.00
Cc1cc(-c2cccc(NS(C)(=O)=O)c2)c(Cl)cc1C1=C(O)C2(CCN(C(=O)OCc3ccccc3)CC2)OC1=O [Example 91] | ≥ 7.00
Cc1cc(-c2cc(NS(C)(=O)=O)ccc2F)c(Cl)cc1C1=C(O)C2(CCCCC2)OC1=O [Example 92] | ≥ 7.00
CCOc1cc(-c2cccc(S(C)(=O)=O)c2)c(C)cc1C1=C(O)C2(CCCCC2)OC1=O [Example 93] | ≥ 7.00
Cc1cc(-c2cccc(NS(C)(=O)=O)c2)c(Cl)cc1C1=C(O)C2(CCCN(CC(=O)NCc3ccccc3)C2)OC1=O (centres unmarked) [Example 97] | ≥ 7.00
Cc1cc(-c2cccc(S(C)(=O)=O)c2)c(Cl)cc1C1=C(O)C2(CCCN(Cc3nc4ccccc4[nH]3)C2)OC1=O (centres unmarked) [Example 99] | ≥ 7.00
Cc1cc(-c2cccc(S(C)(=O)=O)c2)c(Cl)cc1C1=C(O)C2(CCCN(C(=O)CCOc3ccccc3)C2)OC1=O (centres unmarked) [Example 100] | ≥ 7.00
Cc1cc(-c2cccc(S(C)(=O)=O)c2)c(Cl)cc1C1=C(O)C2(CCCN(CC(=O)NC(C)C)C2)OC1=O (centres unmarked) [Example 101] | ≥ 7.00
Cc1cc(-c2cccc(S(C)(=O)=O)c2)c(Cl)cc1C1=C(O)C2(CCCN(C(C)C3=NOCCO3)C2)OC1=O (centres unmarked) [Example 102] | ≥ 7.00
CC(=O)N1CCCC2(C1)OC(=O)C(c1cc(Cl)c(-c3cccc(S(C)(=O)=O)c3)cc1C)=C2O (centres unmarked) [Example 104] | ≥ 7.00
Cc1cc(-c2cccc(S(C)(=O)=O)c2)c(Cl)cc1C1=C(O)C2(CCCN(C(=O)N3CCOCC3)C2)OC1=O (centres unmarked) [Example 106] | ≥ 7.00
Cc1cc(-c2cccc(S(C)(=O)=O)c2)c(Cl)cc1C1=C(O)C2(CCCN(C(=O)CCC(=O)c3ccccn3)C2)OC1=O (centres unmarked) [Example 108] | ≥ 7.00
Cc1cc(-c2cccc(S(C)(=O)=O)c2)c(Cl)cc1C1=C(O)C2(CCN(C(=O)CCc3ccc(S(C)(=O)=O)cc3)CC2)OC1=O [Example 109] | ≥ 7.00
Cc1cc(-c2cccc(S(C)(=O)=O)c2)c(Cl)cc1C1=C(O)C2(CCCN(S(=O)(=O)Cc3ccccc3)C2)OC1=O (centres unmarked) [Example 110] | ≥ 7.00
Cc1cc(-c2cccc(S(C)(=O)=O)c2)c(Cl)cc1C1=C(O)C2(CCCN(C(=O)/C=C/c3cccnc3)C2)OC1=O (centres unmarked) [Example 111] | ≥ 7.00
Cc1cc(-c2cccc(S(C)(=O)=O)c2)c(Cl)cc1C1=C(O)C2(CCCN(C(=O)CCCS(N)(=O)=O)C2)OC1=O (centres unmarked) [Example 113] | ≥ 7.00
Cc1cc(-c2cccc(S(C)(=O)=O)c2)c(Cl)cc1C1=C(O)C2(CCCN(S(=O)(=O)CCCC(F)(F)F)C2)OC1=O (centres unmarked) [Example 114] | ≥ 7.00
COCCNC(=O)CN1CCCC2(C1)OC(=O)C(c1cc(Cl)c(-c3cccc(S(C)(=O)=O)c3)cc1C)=C2O (centres unmarked) [Example 116] | ≥ 7.00
CC/C=C\C(=O)N1CCCC2(C1)OC(=O)C(c1cc(Cl)c(-c3cccc(S(C)(=O)=O)c3)cc1C)=C2O (centres unmarked) [Example 120] | ≥ 7.00

SMILES | pIC50
Cc1cc(-c2cccc(S(C)(=O)=O)c2)c(Cl)cc1C1=C(O)C2(CCCN(C(=O)/C=C\c3cnn(C)c3)C2)OC1=O (centres unmarked) [Example 121] | ≥ 7.00
C/C(=C\C(=O)N1CCCC2(C1)OC(=O)C(c1cc(Cl)c(-c3cccc(S(C)(=O)=O)c3)cc1C)=C2O)CO (centres unmarked) [Example 122] | ≥ 7.00
Cc1cc(-c2cccc(S(C)(=O)=O)c2)c(Cl)cc1C1=C(O)C2(CCCN(C(=O)/C=C\c3c[nH]cn3)C2)OC1=O (centres unmarked) [Example 123] | ≥ 7.00
Cc1cc(-c2cccc(S(C)(=O)=O)c2)c(Cl)cc1C1=C(O)C2(CCCN(C(=O)/C=C\c3cccc(C#N)c3)C2)OC1=O (centres unmarked) [Example 124] | ≥ 7.00
Cc1cc(-c2cccc(S(C)(=O)=O)c2)c(Cl)cc1C1=C(O)C2(CCCN(CC(=O)Nc3ccccc3)C2)OC1=O (centres unmarked) [Example 126] | ≥ 7.00
Cc1cc(-c2cccc(S(C)(=O)=O)c2)c(Cl)cc1C1=C(O)C2(CCCN(CC(=O)NCc3ccccc3)C2)OC1=O (centres unmarked) [Example 128] | ≥ 7.00
Cc1cc(-c2cccc(S(C)(=O)=O)c2)c(Cl)cc1C1=C(O)C2(CCCN(CC(=O)C(C)(CF)CF)C2)OC1=O (centres unmarked) [Example 129] | ≥ 7.00
Cc1cc(-c2cccc(S(C)(=O)=O)c2)c(Cl)cc1C1=C(O)C2(CCCN(CC(=O)NCCc3ccccc3)C2)OC1=O (centres unmarked) [Example 130] | ≥ 7.00
Cc1ccccc1CNC(=O)CN1CCCC2(C1)OC(=O)C(c1cc(Cl)c(-c3cccc(S(C)(=O)=O)c3)cc1C)=C2O (centres unmarked) [Example 132] | ≥ 7.00
Cc1ccc(CNC(=O)CN2CCCC3(C2)OC(=O)C(c2cc(Cl)c(-c4cccc(S(C)(=O)=O)c4)cc2C)=C3O)cc1 (centres unmarked) [Example 133] | ≥ 7.00
Cc1cc(-c2cccc(S(C)(=O)=O)c2)c(Cl)cc1C1=C(O)C2(CCCN(CC(=O)NC(C)c3ccccc3)C2)OC1=O (centres unmarked) [Example 134] | ≥ 7.00
Cc1cc(-c2cccc(S(C)(=O)=O)c2)c(Cl)cc1C1=C(O)C2(CCCN(C(=O)CCCc3ccccc3)C2)OC1=O (centres unmarked) [Example 135] | ≥ 7.00
Cc1cc(-c2cccc(S(C)(=O)=O)c2)c(Cl)cc1C1=C(O)C2(CCCN(C(=O)CC3CCCC3)C2)OC1=O (centres unmarked) [Example 136] | ≥ 7.00
COC(=O)CCCC(=O)N1CCC2(CC1)OC(=O)C(c1cc(Cl)c(-c3cccc(S(C)(=O)=O)c3)cc1C)=C2O [Example 138, methyl 5-{3-[2-chloro-5-methyl-3′-(methylsulfonyl)biphenyl-4-yl]-4-hydroxy-2-oxo-1-oxa-8-azaspiro[4.5]dec-3-en-8-yl}-5-oxopentanoate] | ≥ 7.00
Cc1cc(-c2cccc(S(C)(=O)=O)c2)c(Cl)cc1C1=C(O)C2(CCN(C(=O)CCCC(C)C)CC2)OC1=O [Example 139] | ≥ 7.00
Cc1cc(-c2cccc(S(C)(=O)=O)c2)c(Cl)cc1C1=C(O)C2(CCN(C(=O)CCCS(N)(=O)=O)CC2)OC1=O [Example 140] | ≥ 7.00
COc1ccc(CCCC(=O)N2CCC3(CC2)OC(=O)C(c2cc(Cl)c(-c4cccc(S(C)(=O)=O)c4)cc2C)=C3O)cc1 [Example 141] | ≥ 7.00
Cc1cc(-c2cccc(S(C)(=O)=O)c2)c(Cl)cc1C1=C(O)C2(CCN(C(=O)Cc3ccc(S(=O)(=O)O)cc3)CC2)OC1=O [Example 143] | ≥ 7.00
Cc1cc(-c2cccc(S(C)(=O)=O)c2)c(Cl)cc1C1=C(O)C2(CCN(C(=O)Cc3ccc(OC(F)(F)F)cc3)CC2)OC1=O [Example 144] | ≥ 7.00

SMILES | pIC50
Cc1cc(-c2cccc(S(C)(=O)=O)c2)c(Cl)cc1C1=C(O)C2(CCN(C(=O)CCCc3ccccc3)CC2)OC1=O [Example 145] | ≥ 7.00
Cc1cc(-c2cccc(S(C)(=O)=O)c2)c(Cl)cc1C1=C(O)C2(CCN(C(=O)CCc3cccnc3)CC2)OC1=O [Example 147] | ≥ 7.00
Cc1cc(-c2cccc(S(C)(=O)=O)c2)c(Cl)cc1C1=C(O)C2(CCN(C(=O)OCC(C)(C)C)CC2)OC1=O [Example 152] | ≥ 7.00
CCOC(=O)N1CCC2(CC1)OC(=O)C(c1cc(Cl)c(-c3cccc(S(C)(=O)=O)c3)cc1C)=C2O [Example 153] | ≥ 7.00
Cc1cc(-c2cccc(S(C)(=O)=O)c2)c(Cl)cc1C1=C(O)C2(CCN(C(=O)N3CCCC3)CC2)OC1=O [Example 155] | ≥ 7.00
Cc1cc(-c2cccc(S(C)(=O)=O)c2)c(Cl)cc1C1=C(O)C2(CCN(C(=O)N(C(C)C)C(C)C)CC2)OC1=O [Example 156] | ≥ 7.00
CCN(CC)C(=O)N1CCC2(CC1)OC(=O)C(c1cc(Cl)c(-c3cccc(S(C)(=O)=O)c3)cc1C)=C2O [Example 157] | ≥ 7.00
CC(=O)N1CCC2(CC1)OC(=O)C(c1cc(Cl)c(-c3cccc(S(C)(=O)=O)c3)cc1C)=C2O [Example 158] | ≥ 7.00
Cc1cc(-c2cccc(S(C)(=O)=O)c2)c(Cl)cc1C1=C(O)C2(CCCN(CC(=O)NCc3ccncc3)C2)OC1=O (centres unmarked) [Example 161, 2-{3-[2-Chloro-5-methyl-3′-(methylsulfonyl)biphenyl-4-yl]-4-hydroxy-2-oxo-1-oxa-7-azaspiro[4.5]dec-3-en-7-yl}-N-(pyridin-4-ylmethyl)acetamide] | ≥ 7.00
Cc1cc(-c2cccc(S(C)(=O)=O)c2)c(Cl)cc1C1=C(O)C2(CCCN(CC(=O)NCc3cccnc3)C2)OC1=O (centres unmarked) [Example 162] | ≥ 7.00
Cc1cc(-c2cccc(S(C)(=O)=O)c2)c(Cl)cc1C1=C(O)C2(CCCN(CC(=O)NCc3ccccn3)C2)OC1=O (centres unmarked) [Example 163] | ≥ 7.00
Cc1cc(-c2cccc(S(C)(=O)=O)c2)c(Cl)cc1C1=C(O)C2(CCCN(CC(=O)NCc3ccc(OC(F)(F)F)cc3)C2)OC1=O (centres unmarked) [Example 166] | ≥ 7.00
Cc1cc(-c2cccc(S(C)(=O)=O)c2)c(Cl)cc1C1=C(O)C2(CCCN(CC(=O)NCc3ccsc3)C2)OC1=O (centres unmarked) [Example 167] | ≥ 7.00
Cc1cc(-c2cccc(S(C)(=O)=O)c2)c(Cl)cc1C1=C(O)C2(CCCN(CC(=O)NCc3ccoc3)C2)OC1=O (centres unmarked) [Example 168] | ≥ 7.00
Cc1cc(-c2cccc(S(C)(=O)=O)c2)c(Cl)cc1C1=C(O)C2(CCCN(CC(=O)NCc3ccco3)C2)OC1=O (centres unmarked) [Example 169] | ≥ 7.00
Cc1cc(-c2cccc(S(C)(=O)=O)c2)c(Cl)cc1C1=C(O)C2(CCCN(CC(=O)NCc3cccs3)C2)OC1=O (centres unmarked) [Example 170] | ≥ 7.00
Cc1cc(-c2ccc(N)cc2)c(Cl)cc1C1=C(O)C2(CCCCC2)OC1=O [Example 171, 3-(4′-Amino-2-chloro-5-methylbiphenyl-4-yl)-4-hydroxy-1-oxaspiro[4.5]dec-3-en-2-one] | ≥ 7.00
Cc1cc(-c2cccc(N)c2)c(Cl)cc1C1=C(O)[C@]2(CC[C@@H]3CCC[C@@H]3C2)OC1=O [Example 175] | ≥ 7.00
